Data: US20230066011A1, “PYRROLOPYRIMIDINE DERIVATIVE, AND PHARMACEUTICAL COMPOSITION FOR PREVENTING OR TREATING PROTEIN KINASE-RELATED DISEASE COMPRISING SAME AS ACTIVE INGREDIENT” (VORONOI CO., LTD., priority 2019, published 2023)

Legend:
[1] = test system: MDA-MB-231 cell line; assay: Inhibition of proliferation of MDA-MB-231 cancer cells (Cell Titer-Glo); format: cell-based; conditions: Homo sapiens, 72 hours
Outline: (§1)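 Cells seeded at 2,000/well and exposed 72 h to 11 concentrations of compound (3-fold dilutions, final 10.000000 down to 0.000169 μM) in DMEM or RPMI. Viability read by Cell Titer-Glo luminescence after 10 min at room temperature; GI50 calculated from luminescence.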

[2] = molecular target: T1, human GST-DYRK1A (Homo sapiens, UniProt Q13627); assay: GST-DYRK1A enzyme inhibition, ADP-Glo kinase assay; format: biochemical; conditions: ATP 10 μM, GST-DYRK1A full length, read-out: DYRK1 IC50
T1 construct: purified human GST-DYRK1A (full length, Thermo Scientifics) enzyme; purchased Thermo Scientifics
Outline: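 Full-length human GST-DYRK1A (10 ng) with 10 μM ATP and specific substrate in 40 mM Tris-HCl pH 7.4, 20 mM MgCl2, 0.5 mg/mL BSA, 50 μM DTT, 1 h at 25 °C. ADP formation read by ADP-Glo luminescence relative to solvent control; IC50 from three data sets.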

[3] = molecular target: T2, human GST-CLK1 (Homo sapiens, UniProt P49759); assay: GST-CLK1 enzyme inhibition, ADP-Glo kinase assay; format: biochemical; conditions: ATP 10 μM, GST-CLK1 129-end
T2 construct: purified human GST-CLK1 (129-end, SignalChem) enzyme; purchased SignalChem
Outline: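 Human GST-CLK1 (129-end, 3 ng) reacted with substrate and 10 μM ATP for 1 h at 25° C in 40 mM Tris-HCl pH 7.4, 20 mM MgCl2, 0.5 mg/mL BSA, 50 μM DTT. ADP-Glo luminescence was normalised to solvent control; IC50 (nM) from 3 data sets.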

[4] = molecular target: T3, TTK (Homo sapiens, UniProt P33981); assay: TTK enzyme inhibition, ADP-Glo kinase assay; format: biochemical; set-up: purchased SignalChem T20-10G; conditions: ATP 5 μM
T3 sequence (P33981 1-857): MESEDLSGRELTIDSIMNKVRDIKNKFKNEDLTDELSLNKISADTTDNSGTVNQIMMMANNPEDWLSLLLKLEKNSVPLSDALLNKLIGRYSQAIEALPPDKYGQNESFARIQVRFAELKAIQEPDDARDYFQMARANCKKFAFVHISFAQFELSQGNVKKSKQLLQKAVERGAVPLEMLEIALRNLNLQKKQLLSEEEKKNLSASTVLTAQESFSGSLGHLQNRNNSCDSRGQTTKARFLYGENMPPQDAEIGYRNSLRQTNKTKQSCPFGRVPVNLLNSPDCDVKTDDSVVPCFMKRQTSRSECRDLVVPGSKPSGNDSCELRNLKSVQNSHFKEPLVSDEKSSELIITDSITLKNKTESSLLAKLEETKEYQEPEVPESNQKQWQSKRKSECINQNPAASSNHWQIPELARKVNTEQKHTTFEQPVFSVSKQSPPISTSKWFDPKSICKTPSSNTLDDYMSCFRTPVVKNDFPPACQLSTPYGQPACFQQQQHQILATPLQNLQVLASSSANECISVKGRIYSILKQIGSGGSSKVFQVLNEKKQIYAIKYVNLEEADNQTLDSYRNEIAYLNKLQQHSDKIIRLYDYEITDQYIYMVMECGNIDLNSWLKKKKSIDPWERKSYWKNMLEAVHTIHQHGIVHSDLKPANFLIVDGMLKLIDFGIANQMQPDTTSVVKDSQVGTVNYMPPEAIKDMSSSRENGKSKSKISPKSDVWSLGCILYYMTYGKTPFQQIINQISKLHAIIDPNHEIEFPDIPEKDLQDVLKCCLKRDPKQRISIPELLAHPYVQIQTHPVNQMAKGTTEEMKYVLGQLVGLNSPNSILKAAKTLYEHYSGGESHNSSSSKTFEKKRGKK
Description: To evaluate an inhibitory activity of the compound according to the present invention against LRRK2, LRRK2 (G2019S), DYRK1, CLK1, and TTK kinases, experiments were performed as follows.
Each of the Example compounds was reacted with a purified human TTK (SignalChem #T20-10G) enzyme to evaluate an ability to inhibit an enzyme using a method as described below. A composition of 40 mM Tris-HCl (pH 7.4), 20 mM MgCl2, 0.1 mg/mL BSA (a 5× kinase buffer, SignalChem #K03-09), and 50 μM DTT (SignalChem #D86-09B) was used as a reaction buffer, and all reactions of test substances were performed in the reaction buffer. Each of the compounds was diluted […] from a 10 mM DMSO stock using a serial dilution method, and enzyme activities were measured at final compound concentrations of 1, 0.333333, 0.111111, 0.037037, 0.012346, 0.004115, 0.001372, 0.000457, 0.000152, 0.000051, and 0.000017 μM. In the test, purified ATP (5 μM, Promega #V6930) and an MBP enzyme substrate (0.2 μg, SignalChem M42-51N) were reacted with a human TTK (7.5 ng) enzyme at 25° C. for 4 hours, and the enzyme activities were then determined using an in vitro ADP-Glo™ kinase assay (Promega #V6930). An enzyme-activity reaction solution, an ADP-Glo reaction solution, and an enzyme-ability detection solution were reacted at a ratio of 2:2:1 to measure a degree of inhibition of the enzyme activity with luminescence. The degree of inhibition of the enzyme activity according to the treatment concentration of each of the compounds was calculated based on the fluorescence of the enzyme activity of the solvent control which was not treated with the compound. In this case, the concentration of each of the compounds inhibiting 50% of the enzyme activity was determined to be an IC50 (nM) value, and calculated using Prism (Version 8.2 GraphPad) software.

[5] = test system: MDA-MB-468 cell line; assay: Inhibition of proliferation of MDA-MB-468 cancer cells (Cell Titer-Glo); format: cell-based; conditions: Homo sapiens, MDA-MB-468, 72 hours
Outline: as §1

[6] = molecular target: LRRK2 (Homo sapiens, UniProt Q5S007); assay: LRRK2 enzyme inhibition, ADP-Glo kinase assay; format: biochemical; set-up: purchased Invitrogen PR8604B; conditions: ATP 10 μM
Outline: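 Purified human LRRK2 (25 ng) with 10 μM ATP and 0.2 μg substrate in 40 mM Tris-HCl pH 7.4, 20 mM MgCl2, 0.5 mg/mL BSA, 50 μM DTT, 2 h at 25° C. ADP-Glo luminescence; 12-point compound series from 50 μM final; IC50 relative to solvent control.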

[7] = test system: SHP-77; assay: Inhibition of proliferation of SHP-77 cancer cells (Cell Titer-Glo); format: cell-based; conditions: Homo sapiens, SHP77, 72 hours
Outline: as §1

[8] = molecular target: LRRK2 (G2019S) (Homo sapiens, UniProt Q5S007, G2019S); assay: LRRK2 G2019S enzyme inhibition, ADP-Glo kinase assay; format: biochemical; set-up: purchased SignalChem L10-12GG; conditions: ATP 25 μM
Outline: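 Purified human LRRK2 G2019S (16 ng) with 25 μM ATP and 0.2 μg substrate, 2 h at 25° C. in Tris-HCl pH 7.4, MgCl2, BSA, DTT buffer; compounds at 12 final concentrations, 50 μM down to 0.000001024 μM. ADP-Glo luminescence versus solvent control gave IC50.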

Sequence of LRRK2 (Q5S007 970-2527 limits assumed): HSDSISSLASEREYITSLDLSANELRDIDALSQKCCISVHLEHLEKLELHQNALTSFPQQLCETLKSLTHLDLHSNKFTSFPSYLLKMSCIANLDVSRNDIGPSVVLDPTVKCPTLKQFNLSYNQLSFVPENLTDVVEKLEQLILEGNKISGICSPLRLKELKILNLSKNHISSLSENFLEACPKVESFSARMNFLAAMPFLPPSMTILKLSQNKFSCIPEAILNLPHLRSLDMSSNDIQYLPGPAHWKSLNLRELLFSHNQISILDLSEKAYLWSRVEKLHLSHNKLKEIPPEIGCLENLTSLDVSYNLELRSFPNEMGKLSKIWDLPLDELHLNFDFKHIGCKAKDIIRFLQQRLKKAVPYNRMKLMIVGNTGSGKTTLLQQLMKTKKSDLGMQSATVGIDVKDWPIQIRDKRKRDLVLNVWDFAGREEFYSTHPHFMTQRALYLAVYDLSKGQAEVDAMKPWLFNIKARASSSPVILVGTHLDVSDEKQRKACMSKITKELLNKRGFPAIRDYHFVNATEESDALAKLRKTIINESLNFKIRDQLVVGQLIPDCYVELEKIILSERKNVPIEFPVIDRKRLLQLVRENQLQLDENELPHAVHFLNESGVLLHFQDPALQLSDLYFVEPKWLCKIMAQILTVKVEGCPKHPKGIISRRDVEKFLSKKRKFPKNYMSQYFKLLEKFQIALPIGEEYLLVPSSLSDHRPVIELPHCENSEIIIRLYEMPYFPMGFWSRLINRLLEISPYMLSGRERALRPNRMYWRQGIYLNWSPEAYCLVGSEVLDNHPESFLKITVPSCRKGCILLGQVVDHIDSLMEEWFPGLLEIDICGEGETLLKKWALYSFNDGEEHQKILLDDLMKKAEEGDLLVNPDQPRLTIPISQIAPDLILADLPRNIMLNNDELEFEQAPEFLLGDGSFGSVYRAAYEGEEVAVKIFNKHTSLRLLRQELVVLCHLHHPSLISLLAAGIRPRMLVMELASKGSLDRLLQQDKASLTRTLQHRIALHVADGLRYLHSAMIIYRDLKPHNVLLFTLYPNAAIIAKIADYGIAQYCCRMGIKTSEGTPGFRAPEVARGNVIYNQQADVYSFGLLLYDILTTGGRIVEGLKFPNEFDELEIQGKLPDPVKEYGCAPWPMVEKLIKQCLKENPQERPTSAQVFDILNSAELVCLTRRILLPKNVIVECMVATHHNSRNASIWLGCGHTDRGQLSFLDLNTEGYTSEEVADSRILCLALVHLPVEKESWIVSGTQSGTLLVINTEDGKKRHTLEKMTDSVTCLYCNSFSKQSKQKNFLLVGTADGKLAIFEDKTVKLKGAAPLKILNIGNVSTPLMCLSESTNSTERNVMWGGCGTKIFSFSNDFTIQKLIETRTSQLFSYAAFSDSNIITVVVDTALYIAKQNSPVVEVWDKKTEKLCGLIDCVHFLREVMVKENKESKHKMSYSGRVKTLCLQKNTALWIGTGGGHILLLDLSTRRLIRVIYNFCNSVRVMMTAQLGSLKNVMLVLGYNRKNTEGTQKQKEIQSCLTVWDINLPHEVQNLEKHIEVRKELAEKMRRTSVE
T2 sequence (P49759 129-484 limits assumed): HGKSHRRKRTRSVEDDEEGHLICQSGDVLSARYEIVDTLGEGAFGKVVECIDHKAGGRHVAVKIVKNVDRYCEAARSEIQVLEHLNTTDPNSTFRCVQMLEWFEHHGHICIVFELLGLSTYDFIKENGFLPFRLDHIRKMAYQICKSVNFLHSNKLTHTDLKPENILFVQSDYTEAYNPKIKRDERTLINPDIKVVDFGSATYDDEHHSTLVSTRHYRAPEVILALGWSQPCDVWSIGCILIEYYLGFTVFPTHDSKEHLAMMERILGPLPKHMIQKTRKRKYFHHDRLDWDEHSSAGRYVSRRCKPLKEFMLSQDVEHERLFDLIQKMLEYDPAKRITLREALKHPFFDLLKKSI
Sequence of LRRK2 (G2019S) (Q5S007 970-2527 G2019S limits assumed): as the sequence (Q5S007 970-2527 limits assumed) above, with G1050S counted along it

Structure (SMILES)	GI50 [1] [nM]	IC50 [2] [nM]	IC50 [3] [nM]	IC50 [4] [nM]	GI50 [5] [nM]	IC50 [6] [nM]	GI50 [7] [nM]	IC50 [8] [nM]
COc1cc(P2(=O)CCN(C3CCOCC3)CC2)ccc1Nc1nc(NC2CCCCC2)c2cc[nH]c2n1 [Example 61, 4-(4-((4-(cyclohexylamino)-7H-pyrrolo[2,3-d]pyrimidin-2-yl)amino)-3-methoxyphenyl)-1-(tetrahydro-2H-pyran-4-yl)-1,4-azaphosphinane 4-oxide]	301 to 1000	301 to 1000	301 to 1000	< 100				
COc1cc(S(=O)(=O)N2CCOCC2)ccc1Nc1nc(NC2CCCCC2)c2c(C#N)c[nH]c2n1 [Example 73]	< 50	301 to 1000	301 to 1000		101 to 300	< 100	< 50	301 to 1000
COc1cc(S(=O)(=O)N2CCOCC2)ccc1Nc1nc(N[C@H]2CCOC2)c2c(C#N)c[nH]c2n1 [Example 75, (S)-2-((2-methoxy-4-(morpholinosulfonyl)phenyl)amino)-4-((tetrahydrofuran-3-yl)amino)-7H-pyrrolo[2,3-d]pyrimidine-5-carbonitrile]	51 to 100	301 to 1000	301 to 1000		101 to 300		< 50	
COc1cc(S(=O)(=O)N2CCC(N3CCOCC3)CC2)ccc1Nc1nc(NC2CCCC2)c2c(C#N)c[nH]c2n1 [Example 90, 4-(cyclopentylamino)-2-((2-methoxy-4-((4-morpholinopiperidin-1-yl)sulfonyl)phenyl)amino)-7H-pyrrolo[2,3-d]pyrimidine-5-carbonitrile]	51 to 100	301 to 1000	301 to 1000		51 to 100	101 to 300	101 to 300	< 100
COc1cc(S(=O)(=O)N2CCC(N3CCOCC3)CC2)ccc1Nc1nc(NC2CCCCC2)c2c(C#N)c[nH]c2n1 [Example 91, 4-(cyclohexylamino)-2-((2-methoxy-4-((4-morpholinopiperidin-1-yl)sulfonyl)phenyl)amino)-7H-pyrrolo[2,3-d]pyrimidine-5-carbonitrile]	51 to 100	301 to 1000	301 to 1000		51 to 100	< 100	< 50	< 100
CN1CCC(NC(=O)c2ccc(Nc3nc(NC4CCCCC4)c4c(C#N)c[nH]c4n3)c3c2OCCO3)CC1 [Example 143, 8-((5-cyano-4-(cyclohexylamino)-7H-pyrrolo[2,3-d]pyrimidin-2-yl)amino)-N-(1-methylpiperidin-4-yl)-2,3-dihydrobenzo[b][1,4]dioxin-5-carboxamide]	51 to 100	301 to 1000	< 100	< 100	51 to 100			
N#Cc1c[nH]c2nc(Nc3ccc(C(=O)N4CCN(C5COC5)CC4)c4c3OCCO4)nc(NC3CCCCC3)c12 [Example 144, 4-(cyclohexylamino)-2-((8-(4-(oxetan-3-yl)piperazine-1-carbonyl)-2,3-dihydrobenzo[b][1,4]dioxin-5-yl)amino)-7H-pyrrolo[2,3-d]pyrimidine-5-carbonitrile]	< 50	301 to 1000	101 to 300	< 100	51 to 100			
N#Cc1c[nH]c2nc(Nc3ccc(C(=O)N4CCN(C5CC5)CC4)c4c3OCCO4)nc(NC3CCCCC3)c12 [Example 145]	51 to 100	301 to 1000	301 to 1000	< 100	51 to 100			
CN1CCC(NC(=O)c2ccc(Nc3nc(NC4CCCC4)c4c(C#N)c[nH]c4n3)c3c2OCCO3)CC1 [Example 146, 8-((5-cyano-4-(cyclopentylamino)-7H-pyrrolo[2,3-d]pyrimidin-2-yl)amino)-N-(1-methylpiperidin-4-yl)-2,3-dihydrobenzo[b][1,4]dioxin-5-carboxamide]	101 to 300			< 100	101 to 300			
N#Cc1c[nH]c2nc(Nc3ccc(C(=O)N4CCN(C5COC5)CC4)c4c3OCCO4)nc(NC3CCCC3)c12 [Example 147, 4-(cyclopentylamino)-2-((8-(4-(oxetan-3-yl)piperazine-1-carbonyl)-2,3-dihydrobenzo[b][1,4]dioxin-5-yl)amino)-7H-pyrrolo[2,3-d]pyrimidin-5-carbonitrile]	101 to 300	301 to 1000	< 100	< 100	51 to 100			
COc1cc(P2(=O)CCN(C3COC3)CC2)ccc1Nc1nc(NC2CCCC2)c2c(C#N)c[nH]c2n1 [Example 313, 4-(cyclo-pentylamino)-2-((2-methoxy-4-(1-(oxetan-3-yl)-4-oxido-1,4-azaphosphinan-4-yl)phenyl)amino)-7H-pyrrolo[2,3-d]pyrimidine-5-carbonitrile]		101 to 300	101 to 300	< 100				
